# Results as given in patent US11679100B2, “Methods of enhancing immunity” (The Regents of the University of California, priority 2018, dated 2023).
# Experiments:
# LLC tumor cells = assay: Adoptive transfer of LA1-treated tumor associated macrophages co-implanted with LLC tumor cells; format: in vivo, mice; conditions: tumor-derived macrophages treated with LA1, mixed 1:1 with LLC cells
# Description: In vivo Macrophage Adoptive Transfer Experiments—F4/80+ cells were isolated from single cell suspensions of 700-800 mg LLC tumors from donor WT or Itgam−/− mice by FACS sorting. Primary bone marrow derived macrophages from WT or Itgam−/− mice were polarized and harvested into a single cell suspension. Alternatively, WT tumor derived macrophages were incubated with LA1 or saline. Purified macrophages were admixed 1:1 with LLC tumor cells and 5×10^5 total cells were injected subcutaneously into syngeneic host WT or Itgam−/− mice. Tumors were excised and weights were determined 14 days after inoculation.
# [1] = system: LLC cells and macrophages; assay: In vitro proliferation of LLC cells and macrophages; format: cell-based, murine
# CL66-luc tumor cell = assay: Cytotoxicity assay, luciferase activity; format: cell-based; conditions: 24, 48 and 72 hrs
# Description: Cytotoxicity Assay—Taxol and LA1 cytotoxicity towards the CL66-luc tumor cell was determined by measuring luciferase activity in the tumor cells after exposure to LA1 or Taxol. CL66-luc cells (1,000 cells/well) were seeded into 96-well plates overnight at 37° C. prior to treatment with titrating concentrations of LA1 or Taxol dissolved in 1% DMSO in IDMEM for 24, 48 and 72 hrs. Cells treated with vehicle (1% DMSO in IDMEM) were a negative control. Media was aspirated from the cultured cells and 100 μL of a 150 μg/mL working solution of D-Luciferin in pre-warmed DMEM (10% FBS) was added to each well. The plates were incubated at 37° C. for 5 mins prior to reading luminescence using the EnSpire Plate Reader (PerkinElmer).
# CL66-Luc breast tumors = assay: Orthotopic CL66-Luc breast tumor model; format: in vivo, Balb/cJ mice
# Description: Tumor Studies—Subcutaneous tumor studies: 5×10^5 LLC or B16 cells were injected subcutaneously into syngeneic (C57BL/6) 6- to 8-week old WT or Itgam^−/− mice (n=18). Tumors were excised at 7, 14 or 21 days, cryopreserved in OCT, lysed for RNA purification or collagenase-digested for flow cytometric analysis of CD11b+, F4/80+ and Gr1+ expression. Tumor volumes were calculated using the equation (l^2×w)/2. CL66-luc cells (0.5×10^6 cells) were suspended in 50 μL of basement membrane extract Matrigel (BD Pharmingen) in PBS (1:1) and inoculated orthotopically in the fourth mammary fat pad of female Balb/cJ mice. Tumor dimensions were measured every 2 days, and tumor volume was calculated using the equation: V (mm^3)=[…], where length is the longest diameter of the tumor and width is the shorter diameter.
# Mice were divided into four cohorts: vehicle control treated, LA1 only treated, Taxol only treated, LA1 and Taxol treated. LA1 (2 mg/kg) was dissolved in 2% DMSO and 1% Tween-20 in saline and Taxol (2.5 mg/kg) was dissolved in a 1:1:6 ratio of Cremophor EL: Ethanol:Saline. LA1 was administered by intraperitoneal injection (i.p.) daily, while Taxol was administered every other day by i.p. injection until end-point. LA1+Taxol treated mice received LA1 i.p. in the morning followed by Taxol i.p. within 4 hours. Tumor burden was evaluated every other day by caliper measurements. Prior to tissue collection, mice were anesthetized by ketamine/xylazine and the lungs were perfused with PBS followed by 10% formalin and harvested for fixation. Mammary tumor tissue was harvested and divided for fixation (10% formalin or OCT), snap frozen, or made into single-cell suspensions and analyzed by flow cytometric analysis. For survival studies, Balb/c mice bearing CL66-derived tumors were treated for 6 weeks after the first treatment and monitored thereafter. End point was considered when the tumor reached […] in diameter (n=10-15).
# Immunohistochemistry—Tumor samples were collected and cryopreserved in O.C.T. Sections (5 μm) were fixed in 100% cold acetone, blocked with 8% normal goat serum for 2 hours, and incubated with primary antibodies at […] for 2 hours at room temperature. Sections were washed 3 times with PBS and incubated with fluorescent secondary antibodies. Primary antibodies where: F4/80 (BM8, eBioscience), CD4 (H129.19, BD Bioscience), CD8 (53-6.7, BD Bioscience), CD31 (MEC13.1, BD Bioscience), desmin (RB0914-P1, LabVision, Thermo Scientific), and anti-smooth muscle actin (SMA) (1A4, Sigma-Aldrich). Slides were counterstained with 4′,6-diamidino-2-phenylindole (DAPI) to identify nuclei. Immunofluorescence images were collected on a Nikon microscope (Eclipse TE2000-U) and analyzed using Metamorph image capture and analysis software (Version 6.3r5, Molecular Devices). Pixels/field or cell number/field were quantified in five 100× fields from 5 biological replicates. For LA1 studies, immunohistochemical staining was quantified by counting marker positive cells in 3 different areas analyzed at 40× using a light microscope for each tumor tissue (n=4−6). Tissues that were stained with fluorochrome conjugated secondary antibodies were counter stained with DAPI and analyzed using the Zeiss 700 LSM confocal microscope and Zen software (Carl Zeiss Group, Hartford, Conn.).
# Alternatively, immunostaining was performed on formalin fixed, paraffin-embedded tumor tissues. Deparaffinized tissue sections (5 μm) were either stained with hemotoxylin-eosin or were subjected to antigen retrieval by steam heating in an acidic pH solution (Citrate-based, Vector Laboratories) prior to immune staining for α-SMA (clone 1A4, Fisher Scientific), MMP9 (polyclonal rabbit, Abcam), S100A8 (goat polyclonal (M-19), Santa Cruz), CD31 (clone RM0032-1D12, Abcam), or ARG1 (sc-18351, Santa Cruz) at 4° C. overnight. […]
# [2] = system: human MDA-MB-231 mammary xenograft tumors; assay: Orthotopic MDA-MB-231 mammary xenograft model; format: in vivo, mice
# Description: Alternatively, 5 million MDA-MB 231 human breast cancer cells were injected orthotopically in the 4th mammary fat pad of 6-week old female nude mice. The tumors were allowed to establish for 35 days (at least 0.5 cm in diameter) and the tumor bearing mice were divided into three treatment groups including, vehicle, LA1 only (i.p.; 2.0 mg/kg; daily) and Taxol only (i.p.; 2.5 mg/kg every other day). Treatment was initiated on day 35 and continued until the end-point at day 58 post-tumor when all the mice were sacrificed and tumor tissue was harvested for histological analysis. Palpable tumors were measured using digital calipers 3 times weekly during the entire experiment to develop tumor growth curves.
compound,measurement,setting,value
"O=C(O)c1ccc(-c2ccc(/C=C3\SC(=S)N(Cc4ccccc4)C3=O)o2)cc1 [LA1, leukadherin 1]",tumor growth after co-implantation of treated macrophages with LLC cells,LLC tumor cells,completely inhibited tumor growth
same,LLC or macrophage viability,[1],no direct effect on LLC or macrophage viability
same,CL66-Luc breast tumor cell growth in vitro,CL66-luc tumor cell,no effect on CL66-Luc breast tumor cell growth in vitro
same,CD8+ T cells in tumors,CL66-Luc breast tumors; CL66-Luc tumors,increased the presence of CD8+ T cells
same,MHCII+ macrophages in tumors,CL66-Luc breast tumors; CL66-Luc tumors,increased the presence of MHCII+ macrophages
same,"expression of Arginase1, S100A8 and MMP9 in tumors",CL66-Luc breast tumors; CL66-Luc tumors,"inhibited expression of Arginase1, S100A8 and MMP9 in CL66-Luc tumors"
same,"MHCII, CD206, Arg1, MMP9 and S100A8 expression in TAMs",CL66-Luc breast tumors; CL66 Luc model,"stimulating MHCII expression and reducing CD206, Arg1, MMP9 and S100A8 expression in TAMs"
same,"CL66-Luc tumor growth, combination with irradiation",CL66-Luc breast tumors; LA1 2 mg/kg + IR 20 Gy,synergized with irradiation to suppress CL66-Luc breast tumor growth
same,CL66-Luc tumor growth,"CL66-Luc breast tumors; LA1 2 mg/kg i.p. daily, compared with taxol","potently reduced tumor growth in syngeneic, orthotopically implanted CL66-Luc breast tumors more effectively than taxol"
same,survival,CL66-Luc breast tumors; mouse models of cancer,prolong survival in mouse models of cancer
same,CL66 Luc tumor growth relative to control tumors,"CL66-Luc breast tumors; syngeneic, immune competent mice",25%
same,MDA-MB-231 xenograft tumor growth,[2]; LA1 2.0 mg/kg i.p. daily,"suppressed the growth of orthotopic, human MDA-MB-231 mammary xenograft tumors"
same,MDA-MB-231 tumor growth relative to control treated animals,[2]; mice which lack T cells,50%
